According to US12370161B2, “Composition for treating atopy or pruritus comprising N-acetyl or N-acyl amino acid” (STEMDR INC., priority 2017, dated 2025):

Tested on: atopic dermatitis-induced Nc/Nga mouse
Assay: SCORAD clinical skin score, DNFB-induced atopic dermatitis in Nc/Nga mouse
Format: in vivo
Parameters: key to Mouse 1 Erythema / Mouse 2 Eschar / Mouse 2 Dryness / Mouse 2 Abrasion / Mouse 1 Edema / Mouse 1 Eschar / Mouse 1 Dryness / Mouse 1 Abrasion / Mouse 2 Erythema / Mouse 2 Edema / Mouse 3 Erythema / Mouse 3 Edema / Mouse 3 Eschar / Mouse 3 Dryness / Mouse 3 Abrasion: 0 = no symptom, 1 = mild, 2 = moderate, 3 = severe; key to Mouse 1 Sum / Mean (of Sum, SCORAD) / Mouse 3 Sum: sum of individual symptom scores, each graded 0-3
Conditions: for dermatitis-treating effect of L-, L/D- and D-form (FIG. 6): Nc/Nga atopic dermatitis model, 0.1%; for Mouse 1 Erythema: DNFB Nc/Nga (FIG. 8), 0.1% in PBS, 200 μL on back skin daily day 15-21; for Mouse 1 Erythema / Mouse 1 Abrasion / Mouse 1 Dryness / Mouse 1 Edema / Mouse 1 Eschar / Mouse 1 Lichenification / Mouse 2 Abrasion / Mouse 2 Dryness / Mouse 2 Edema / Mouse 2 Erythema / Mouse 2 Eschar / Mouse 2 Lichenification / Mouse 3 Abrasion / Mouse 3 Dryness / Mouse 3 Edema / Mouse 3 Erythema / Mouse 3 Eschar / Mouse 3 Lichenification: graded per Example 4; for Mouse 1 Abrasion / Mouse 1 Dryness / Mouse 1 Edema / Mouse 1 Eschar / Mouse 1 Lichenification / Mouse 1 Sum / Mouse 2 Abrasion / Mouse 2 Dryness / Mouse 2 Edema / Mouse 2 Erythema / Mouse 2 Eschar / Mouse 2 Lichenification / Mouse 2 Sum / Mouse 3 Abrasion / Mouse 3 Dryness / Mouse 3 Edema / Mouse 3 Erythema / Mouse 3 Eschar / Mouse 3 Lichenification / Mouse 3 Sum / Mean (of Sum, SCORAD): DNFB Nc/Nga, 0.1% topical day 15-21; for Mouse 1 Sum / Mouse 2 Sum / Mouse 3 Sum: sum of individual scores; for Mean (of Sum, SCORAD): mean of 3 mice
Procedure: In order to establish a model more similar to an atopy model than that of the Balb/c mice, atopy was induced in Nc/Nga mouse mice. Specifically, after inducing DNFB sensitization by applying 100 μL of 0.35% 2,4-dinitrofluorobenzene (DNFB) in acetone/olive oil (3:1) on the shaved back skin, dermatitis was induced by applying 100 μL of 0.15% DNFB for 4-20 days, every other day. Control mice were treated with a vehicle of the same volume (FIG. 1B).
After dissolving an N-acetyl or N-acylamino acid in phosphate-buffered saline to 0.1%, 200 μL of the solution was applied on the back skin of the mice every day, from day 22 until day 28 for the Balb/c atopic dermatitis model, and from day 15 until day 21 for the Nc/Nga atopic dermatitis model. When the N-acetyl or N-acylamino acid was treated together with DNFB, they were treated with 12-hour intervals in order to avoid direct reaction between the DNFB and the N-acetyl or N-acylamino acid. A non-treated group and a 2,4-dinitrofluorobenzene (DNFB) group were treated with phosphate-buffered saline of the same volume (FIGS. 1A-1B). As the N-acetylamino acid, products purchased from Sigma-Aldrich (USA), MP scientific (USA), TCI (Tokyo Chemical Industry, Japan), Santacruz (USA), etc. were used without purification.
The degree of skin soothing and the severity of atopic dermatitis were evaluated macroscopically according to the previously established SCORAD (SCORing Atopic Dermatitis) method (Oranje et al., 2007). The degree of symptoms such as edema, erythema, eschar, dryness, abrasion, lichenification, etc. was graded from 0 to 3 (0, no symptom; 1, mild; 2, moderate; 3, severe). The overall dermatitis score was determined from the sum of all individual scores (Table 1). The assessment was performed by an investigator who was blind to the grouping of the mice.
Skin-soothing effect and the severity of dermatitis were evaluated for the acyl derivatives of tryptophan synthesized in Example 9, the acyl derivative of alanine synthesized in Example 10 and N-palmitoylalanine (purchased from Santacruz (USA)) according to the method of Example 4 (Table 2)

CC(=O)N[C@@H](C)C(=O)O [D-form N-acetylalanine, N-acetylalanine, reference compound]
dermatitis-treating effect of L-, L/D- and D-form (FIG. 6): no effect

CCCCCCCCCCCCCCCCCC(=O)N[C@@H](Cc1c[nH]c2ccccc12)C(=O)O [N-stearyl-L-tryptophan, N-stearoyl-L-tryptophan]
Mouse 1 Erythema: 2
Mouse 1 Abrasion: 2
Mouse 1 Dryness: 2
Mouse 1 Edema: 2
Mouse 1 Eschar: 2
Mouse 1 Lichenification: 2
Mouse 1 Sum: 12
Mouse 2 Abrasion: 2
Mouse 2 Dryness: 2
Mouse 2 Edema: 2
Mouse 2 Erythema: 2
Mouse 2 Eschar: 1
Mouse 2 Lichenification: 1
Mouse 2 Sum: 10
Mouse 3 Abrasion: 2
Mouse 3 Dryness: 1
Mouse 3 Edema: 2
Mouse 3 Erythema: 2
Mouse 3 Eschar: 2
Mouse 3 Lichenification: 2
Mouse 3 Sum: 11
Mean (of Sum, SCORAD): 11

CCCCCCCCCCCCCCCC(=O)N[C@@H](C)C(=O)O [N-palmitoyl L-alanine, N-palmitoyl-L-alanine]
Mouse 1 Erythema: 1
Mouse 1 Abrasion: 1
Mouse 1 Dryness: 1
Mouse 1 Edema: 2
Mouse 1 Eschar: 1
Mouse 1 Lichenification: 1
Mouse 1 Sum: 7
Mouse 2 Abrasion: 1
Mouse 2 Dryness: 1
Mouse 2 Edema: 1
Mouse 2 Erythema: 2
Mouse 2 Eschar: 1
Mouse 2 Lichenification: 1
Mouse 2 Sum: 7
Mouse 3 Abrasion: 2
Mouse 3 Dryness: 2
Mouse 3 Edema: 1
Mouse 3 Erythema: 2
Mouse 3 Eschar: 1
Mouse 3 Lichenification: 1
Mouse 3 Sum: 9
Mean (of Sum, SCORAD): 6.7

CCCCC(=O)N[C@@H](Cc1c[nH]c2ccccc12)C(=O)O [N-pentanoyl L-tryptophan, N-pentanoyl-L-tryptophan]
Mouse 1 Erythema: 2
Mouse 1 Abrasion: 1
Mouse 1 Dryness: 2
Mouse 1 Edema: 2
Mouse 1 Eschar: 2
Mouse 1 Lichenification: 2
Mouse 1 Sum: 11
Mouse 2 Abrasion: 1
Mouse 2 Dryness: 2
Mouse 2 Edema: 2
Mouse 2 Erythema: 2
Mouse 2 Eschar: 1
Mouse 2 Lichenification: 2
Mouse 2 Sum: 10
Mouse 3 Abrasion: 2
Mouse 3 Dryness: 1
Mouse 3 Edema: 2
Mouse 3 Erythema: 2
Mouse 3 Eschar: 2
Mouse 3 Lichenification: 1
Mouse 3 Sum: 10
Mean (of Sum, SCORAD): 10.3

CCCC(=O)N[C@@H](Cc1c[nH]c2ccccc12)C(=O)O [N-butyryl L-tryptophan, N-butyryl-L-tryptophan]
Mouse 1 Erythema: 1
Mouse 1 Abrasion: 1
Mouse 1 Dryness: 2
Mouse 1 Edema: 2
Mouse 1 Eschar: 2
Mouse 1 Lichenification: 2
Mouse 1 Sum: 10
Mouse 2 Abrasion: 2
Mouse 2 Dryness: 2
Mouse 2 Edema: 1
Mouse 2 Erythema: 2
Mouse 2 Eschar: 1
Mouse 2 Lichenification: 2
Mouse 2 Sum: 10
Mouse 3 Abrasion: 1
Mouse 3 Dryness: 1
Mouse 3 Edema: 1
Mouse 3 Erythema: 1
Mouse 3 Eschar: 1
Mouse 3 Lichenification: 2
Mouse 3 Sum: 6
Mean (of Sum, SCORAD): 8.7

CC(=O)N[C@@H](Cc1c[nH]c2ccccc12)C(=O)O [D-form N-acetyltryptophan, N-acetyltryptophan, reference compound]
dermatitis-treating effect of L-, L/D- and D-form (FIG. 6): no effect

CCC(=O)N[C@@H](Cc1c[nH]c2ccccc12)C(=O)O [N-propionyl L-tryptophan, N-propionyl-L-tryptophan]
Mouse 1 Erythema: 2
Mouse 1 Abrasion: 2
Mouse 1 Dryness: 2
Mouse 1 Edema: 2
Mouse 1 Eschar: 2
Mouse 1 Lichenification: 2
Mouse 1 Sum: 12
Mouse 2 Abrasion: 2
Mouse 2 Dryness: 3
Mouse 2 Edema: 2
Mouse 2 Erythema: 2
Mouse 2 Eschar: 2
Mouse 2 Lichenification: 2
Mouse 2 Sum: 13
Mouse 3 Abrasion: 2
Mouse 3 Dryness: 1
Mouse 3 Edema: 1
Mouse 3 Erythema: 2
Mouse 3 Eschar: 2
Mouse 3 Lichenification: 1
Mouse 3 Sum: 9
Mean (of Sum, SCORAD): 11.3

CCCCCCCCCCC(=O)N[C@@H](Cc1c[nH]c2ccccc12)C(=O)O [N-undecanoyl L-tryptophan, N-undecanoyl-L-tryptophan]
Mouse 1 Erythema: 1
Mouse 1 Abrasion: 2
Mouse 1 Dryness: 1
Mouse 1 Edema: 2
Mouse 1 Eschar: 1
Mouse 1 Lichenification: 2
Mouse 1 Sum: 9
Mouse 2 Abrasion: 2
Mouse 2 Dryness: 1
Mouse 2 Edema: 1
Mouse 2 Erythema: 2
Mouse 2 Eschar: 2
Mouse 2 Lichenification: 2
Mouse 2 Sum: 10
Mouse 3 Abrasion: 1
Mouse 3 Dryness: 1
Mouse 3 Edema: 2
Mouse 3 Erythema: 1
Mouse 3 Eschar: 2
Mouse 3 Lichenification: 2
Mouse 3 Sum: 9
Mean (of Sum, SCORAD): 9.3

CCCCCCCC/C=C\CCCCCCCC(=O)N[C@@H](Cc1c[nH]c2ccccc12)C(=O)O [N-oleoyl-L-tryptophan]
Mouse 1 Erythema: 2
Mouse 1 Abrasion: 2
Mouse 1 Dryness: 2
Mouse 1 Edema: 1
Mouse 1 Eschar: 2
Mouse 1 Lichenification: 3
Mouse 1 Sum: 12
Mouse 2 Abrasion: 2
Mouse 2 Dryness: 2
Mouse 2 Edema: 1
Mouse 2 Erythema: 1
Mouse 2 Eschar: 1
Mouse 2 Lichenification: 3
Mouse 2 Sum: 10
Mouse 3 Abrasion: 2
Mouse 3 Dryness: 2
Mouse 3 Edema: 1
Mouse 3 Erythema: 2
Mouse 3 Eschar: 1
Mouse 3 Lichenification: 2
Mouse 3 Sum: 10
Mean (of Sum, SCORAD): 10.7

CCCCCCCC/C=C\CCCCCCCCCCCC(=O)N[C@@H](Cc1c[nH]c2ccccc12)C(=O)O [N-(Z)-docos-13-enoyl L-tryptophan, N—(Z)-docos-13-enoyl-L-tryptophan]
Mouse 1 Erythema: 1
Mouse 1 Abrasion: 1
Mouse 1 Dryness: 1
Mouse 1 Edema: 1
Mouse 1 Eschar: 1
Mouse 1 Lichenification: 0
Mouse 1 Sum: 5
Mouse 2 Abrasion: 1
Mouse 2 Dryness: 2
Mouse 2 Edema: 1
Mouse 2 Erythema: 1
Mouse 2 Eschar: 2
Mouse 2 Lichenification: 0
Mouse 2 Sum: 7
Mouse 3 Abrasion: 1
Mouse 3 Dryness: 2
Mouse 3 Edema: 1
Mouse 3 Erythema: 2
Mouse 3 Eschar: 2
Mouse 3 Lichenification: 1
Mouse 3 Sum: 9
Mean (of Sum, SCORAD): 7

CC(=O)N[C@@H](CCC(=O)N[C@@H](C)C(=O)O)C(=O)O [N-acetyly-glutammyl-L-alanine, N-acetyl-γ-glutammyl-L-alanine]
Mouse 1 Erythema: 0
Mouse 1 Abrasion: 1
Mouse 1 Dryness: 0
Mouse 1 Edema: 1
Mouse 1 Eschar: 0
Mouse 1 Lichenification: 2
Mouse 1 Sum: 4
Mouse 2 Abrasion: 1
Mouse 2 Dryness: 1
Mouse 2 Edema: 1
Mouse 2 Erythema: 1
Mouse 2 Eschar: 2
Mouse 2 Lichenification: 2
Mouse 2 Sum: 8
Mouse 3 Abrasion: 1
Mouse 3 Dryness: 0
Mouse 3 Edema: 1
Mouse 3 Erythema: 1
Mouse 3 Eschar: 1
Mouse 3 Lichenification: 2
Mouse 3 Sum: 6
Mean (of Sum, SCORAD): 6
